Source: ChEMBL document CHEMBL1151535, “Oxiranes with quinoline substitution : Stereoselective synthesis and antiviral activity” (1996)

How the values were obtained:
Type in all cases: functional
[1] = test system: Encephalomyocarditis virus; assay: In vitro antiviral activity against Encephalomyocarditis virus(EMCV) […], at the concentration 1000-1 ug/ml.
Mus musculus = assay: In vivo antiviral activity against Encephalomyocarditis virus(EMCV) in mice, at the concentration 0.25 mg/mouse
[2] = test system: Encephalomyocarditis virus; assay: In vitro antiviral activity against Encephalomyocarditis virus(EMCV) […], at the concentration 7.8 ug/ml.
[3] = test system: Encephalomyocarditis virus; assay: In vitro antiviral activity against Encephalomyocarditis virus(EMCV) […], at the concentration 15.6 ug/ml.

SMILES | Protection [1] [%] | Protection (Mus musculus) [%] | also measured
Cc1cc(NNC(=O)[C@@H]2O[C@H]2c2ccncc2)nc2ccccc12 | 0 |  | 
Cc1cc(NNC(=O)[C@@H]2O[C@H]2c2cccc([N+](=O)[O-])c2)nc2ccccc12 | 0 |  | 
Cc1cc(NNC(=O)[C@@H]2O[C@H]2c2ccc3c(c2)OCO3)nc2ccccc12 |  | 10 | Protection [2]: 75%
COc1ccc([C@@H]2O[C@H]2C(=O)NNc2cc(C)c3ccccc3n2)cc1 |  | 25 | Protection [3]: 75%
Cc1cc(NNC(=O)CCl)nc2ccccc12 | 0 |  | 
Cc1cc(NNC(=O)[C@@H]2O[C@H]2c2ccc(Cl)cc2)nc2ccccc12 | 0 |  | 
